In PubChem BioAssay AID179 (DTP/NCI, 2004):
The source made the active and inactive calls.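 How the source made its calls: active means compounds giving half or more protection of infected cells from virus-caused growth loss, again on retest; inactive means the rest.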

System: CEM cells HIV-1 protection, formazan growth assay
Assay: NCI AIDS Antiviral Assay
Conditions: for IC50: measured here: growth of uninfected CEM cells
Summary of the method: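 Human CEM cells, uninfected and HIV-1-infected, received five drug concentrations, and growth was read by soluble formazan assay. Compounds giving at least 50% protection were retested; reproducible 100% protection defined confirmed active.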

| Structure (SMILES) | EC50 | IC50 | outcome |
| --- | --- | --- | --- |
| COc1ccccc1NC1=NCC(C)S1 (stereo not given) | > 200 µM | > 200 µM | – |
| COC1(OC)CCCc2c1no[n+]2[O-] | > 200 µM | > 200 µM | – |
| CC(=O)O[C@H]1CC[C@@]2(C)C(=CC[C@@H]3C2CC[C@]2(C)Nc4nc5ccccc5cc4CC32)C1 (stereo not given in full) | – | – | inactive |
| C=CCP(c1ccccc1)c1ccccc1 | 0.0631 µM | > 200 µM | – |
| O=c1[nH]c2c3ccccc3ccc2c2cc3c(cc12)OCO3 | – | – | inactive |
| O=S(=O)(O)c1ccc2c(N=Nc3ccc(/C=C/c4ccc(N=Nc5c(O)ccc6cc(S(=O)(=O)O)ccc56)cc4S(=O)(=O)O)c(S(=O)(=O)O)c3)c(O)ccc2c1 | 7.76 µM | 97.7 µM | – |
| CC1=CC(=O)C(C)(C2=NC(C)(C)CO2)c2ccccc21 (stereo not given) | 51.3 µM | 575 µM | – |
| O=S(=O)(O)c1cc(S(=O)(=O)O)c2c(Nc3ccnc4ccccc34)ccc(S(=O)(=O)O)c2c1 | > 200 µM | > 200 µM | – |
| O=C1NC(=O)C2C1C1C=C3c4ccccc4N(c4ccccc4)C32[C@H]2C(=O)NC(=O)[C@@H]12 (stereo not given in full) | > 316 µM | 112 µM | – |
| COC(=O)NC(Cc1ccccc1)NC(=O)OC(C)(C)C (stereo not given) | > 200 µM | > 200 µM | – |
| Cc1nc2c(=O)[nH]c(=O)nc-2n(CCO)c1C | > 100 µM | 40.7 µM | – |
| COC1/C=C/OC2(C)Oc3c(C)c(O)c4c(O)c(c(/C=N/N5CCOCC5)c(O)c4c3C2=O)NC(=O)C(C)=C/C=C/C(C)C(O)C(C)C(O)C(C)C(OC(C)=O)C1C (stereo not given) | > 200 µM | 35.5 µM | – |
| NC(=O)c1nnn(Cc2cc(Cl)c(C(=O)c3ccc(Cl)cc3)c(Cl)c2)c1N | > 200 µM | – | – |
| CNC(=S)N/N=C/c1cccc(C)n1 | > 200 µM | 19.5 µM | – |
| COCN(C)c1nc(N(C)C)nc(N(C)C)n1 | > 100 µM | 70.8 µM | – |
| N#CC=Cc1ccc([N+](=O)[O-])s1 (mixture of isomers) | > 2 µM | 0.166 µM | – |
| CCOC(=O)c1c(N2CCOCC2)[nH]c(=O)c(C(c2cccs2)c2c(O)c(C(=O)OCC)c(N3CCOCC3)[nH]c2=O)c1O | > 200 µM | > 200 µM | – |
| CSc1nn(C)cc2nc(C)nc1-2 | > 200 µM | > 200 µM | – |
| CC1=C(C(=O)Nc2ccccc2)C(c2ccc3c(c2)OCO3)C(C(=O)Nc2ccccc2)=C(C)N1 | > 11.2 µM | > 11.2 µM | – |
| N#C[C@H](c1nc2ccccc2s1)c1nc2ccccc2nc1Cl | > 100 µM | > 100 µM | – |
| c1ccc(CCCC2Sc3cccc4cccc(c34)S2)cc1 | > 11.7 µM | > 11.7 µM | – |
| N#C/C(=C/c1ccc([N+](=O)[O-])o1)c1ccccc1 | > 1050 µM | 61.7 µM | – |

| Structure (SMILES) | EC50 | IC50 | outcome |
| --- | --- | --- | --- |
| Cc1cc(=O)oc2c3c(cc(OC(C)C)c12)O[C@H](C)[C@@H](C)C3=O | > 200 µM | 40.7 µM | – |
| CCOC(=O)Nc1cc(NC(C)/C(=N/O)c2ccccc2)c([N+](=O)[O-])c(N)n1 (stereo not given) | – | – | inactive |
| CC(=O)Nc1ccc(C2=N/C(=C\c3ccc(Cl)c(Cl)c3)C(=O)O2)cc1 | > 7.24 µM | > 7.24 µM | – |
| CN(C)c1ccc(C(C#N)NNC(=O)Cc2ccccc2)cc1 (stereo not given) | > 85.1 µM | > 85.1 µM | – |
| CC1CC[P+](c2ccccc2)(c2ccccc2)c2c1ccc1ccccc21 (stereo not given) | > 17.8 µM | 0.741 µM | – |
| CN(C)C(=O)NCCN1CCCCCc2ccccc21 | > 200 µM | 49 µM | – |
| Cc1c2ncccc2cc2oc3ccccc3c(=O)c12 | > 200 µM | 10 µM | – |
| COc1ccc2nccc3c2c1NC(Cl)=C3 | > 200 µM | 1.58 µM | – |
| CCOc1ccccc1NC(=O)CCc1nnc2s/c(=C\CCc3ccccc3)c(=O)n12 | > 79.4 µM | > 79.4 µM | – |
| COc1ccc(C2C3=CONC3CC3CCCCC32)cc1 (stereo not given) | > 200 µM | 77.6 µM | – |
| Cc1ccc(C2=C(c3ccccc3)C(Br)(c3ccc(C)cc3)C(c3ccccc3)=C2c2ccc(C)cc2)cc1 | > 2.51 µM | > 2.51 µM | – |
| N#Cc1c(C#N)c(-c2ccccc2)n(Cc2ccccc2)c1N | > 200 µM | > 200 µM | – |
| CC(CNc1ccc(Cl)cc1)(CNc1ccc(Cl)cc1)[N+](=O)[O-] | > 14.8 µM | > 14.8 µM | – |
| O=[N+]([O-])c1ccc(CSc2nn(Cc3ccc([N+](=O)[O-])cc3)cc3ncnc2-3)cc1 | > 200 µM | 19.5 µM | – |
| CN(C)CCC(/C=C/c1ccccc1)=N\Nc1ccccc1 | – | – | inactive |
| Cn1c2c(c3ccccc31)CC(=O)N1CCCCC1C21OCCO1 (stereo not given) | > 100 µM | > 100 µM | – |
| COc1ccc(/C=C(/C(C)=O)C(=O)c2ccccc2)cc1 | > 129 µM | 38 µM | – |
| C1C2CC3CC1CC(Nc1nc(NC45CC6CC(CC(C6)C4)C5)nc(NC45CC6CC(CC(C6)C4)C5)n1)(C2)C3 | > 200 µM | 41.7 µM | – |
| O=c1oc2ccccc2c2nc3ccc(Cl)cc3cc12 | > 200 µM | 5.13 µM | – |
| CC(=O)N(C)OC(=O)CC(=O)c1ccccc1 | > 776 µM | 661 µM | – |
| Cc1c2c(cc3c1C(=O)C(=O)C1=C3OCC1C)C(C)(C)CCC2 (stereo not given) | – | – | inactive |
| COCCOCCOCCOc1cccc2c1C(=O)c1c(OCCOCCOCCOC)cccc1C2=O | – | – | inactive |

| Structure (SMILES) | EC50 | IC50 | outcome |
| --- | --- | --- | --- |
| NC(CCC(=O)NC(CSSCC(NC(=O)CCC(N)C(=O)O)C(=O)O)C(=O)O)C(=O)O (stereo not given) | > 200 µM | > 200 µM | – |
| CC(=O)NC1C(OCc2ccccc2)OC(CO)C(O)C1OCC(=O)N1CCCC1C(=O)N[C@@H](CCC(=O)NCCCCNc1c2ccccc2nc2cccc([N+](=O)[O-])c12)C(N)=O (stereo not given in full) | > 100 µM | 15.8 µM | – |
| Cn1cc2c(=O)n3ncn(-c4ccc(Br)cc4)c3nc2n1 | > 200 µM | > 200 µM | – |
| Cc1nc2ccc(F)cc2c2c1CCN2c1ccc(Cl)cc1 | > 100 µM | 5.75 µM | – |
| COc1ccc(C2SC(N)=Nc3c2c(C)nn3C(=O)c2ccc(Cl)cc2)cc1 (stereo not given) | > 200 µM | 151 µM | – |
| CCCCCCC(=O)C/C(CCC(=O)N(Cc1ccccc1)Cc1ccccc1)=N\NC(N)=O | > 38 µM | > 38 µM | – |
| CCCCCCC1CC(=O)C1(Cl)Cl (stereo not given) | – | – | inactive |
| C1=NN2C(c3ccccc3)=NOC2C2C(c3ccccc3)=NOC12 (stereo not given) | > 200 µM | > 200 µM | – |
| CCOC(=O)CCC(NC(=O)c1ccc(CNc2nc3ccccc3nc2C(=O)OCC)cc1)C(=O)OCC (stereo not given) | > 200 µM | > 200 µM | – |
| CCOC(=O)Nc1nc2cc(C(=O)OCC)n(C)c2s1 | > 200 µM | > 200 µM | – |
| Cc1c(CCCl)c(N=[N+]=[N-])n2c(nc3ccccc32)c1C#N | > 200 µM | 11 µM | – |
| COc1ccc(/C=c2/sc3n(c2=O)NC2(CCCCC2)NN=3)cc1 | – | – | inactive |
| COC(=O)C1=C2c3ccccc3NC(=O)N2NC1C(=O)OC (stereo not given) | > 550 µM | 501 µM | – |
| COC(=O)[C@H](Cc1c[nH]c2ccccc12)NP(=O)(OCCC#N)OCC1OC(n2cc(C)c(=O)[nH]c2=O)CC1N=[N+]=[N-] (stereo not given in full) | 55 µM | 186 µM | – |
| O=c1c2c(nc3n1CCC3)sc1c(O)c(Br)ccc12 | > 200 µM | 11 µM | – |
| Cc1n[nH]c(=O)n1-n1cccc1 | > 200 µM | > 200 µM | – |
| O=C(Nc1ccc(-c2cccs2)oc1=O)c1ccccc1 | > 200 µM | > 200 µM | – |
| C[N+]12C(=O)CC3OCC=C4C[N+]5(C)CCC6(c7ccccc71)C2C3C4CC65O (stereo not given) | > 398 µM | 224 µM | – |
| O=C(O)/C(=C/c1c(O)ccc2ccccc12)c1csc(-c2nc(/C(=C\c3c(O)ccc4ccccc34)C(=O)O)cs2)n1 | > 43.7 µM | 23.4 µM | – |
| COc1c(CCl)cc(-c2cc(=O)c3ccccc3s2)cc1CCl | > 200 µM | > 200 µM | – |
| COc1ccc(S(=O)c2ccc(OC)cc2)cc1 | > 955 µM | 490 µM | – |
| C=C(C)CCC1C=[N+]([O-])OC(C)(C)C1(C)C (stereo not given) | > 200 µM | 107 µM | – |

| Structure (SMILES) | EC50 | IC50 | outcome |
| --- | --- | --- | --- |
| O=C(Nc1nc(C23CC4CC(CC(C4)C2)C3)cs1)c1cc2cc(Cl)ccc2oc1=O | > 200 µM | > 200 µM | – |
| CN(C)Cc1cc(C23CC4CC(CC(C4)C2)C3)cc(-c2ccccc2)c1O | – | – | inactive |
| COc1ccc(NC2Oc3cc4c(cc3C(c3cccc(OC)c3OC)C2C)OCO4)cc1 (stereo not given) | > 200 µM | 1.95 µM | – |
| Cc1cc(C)nc(NS(=O)(=O)c2ccc(NCN3C(=O)c4ccccc4C3=O)cc2)n1 | > 200 µM | 110 µM | – |
| CC1CN2C(=O)[C@@H](OC(=O)Nc3cc([N+](=O)[O-])cc([N+](=O)[O-])c3)[C@H]3CC[C@@H]1[C@]32C (stereo not given in full) | > 100 µM | 55 µM | – |
| CCOC(=O)C(C)Sc1nnc(COc2ccc(Cl)cc2)n1-c1ccccc1 (stereo not given) | > 100 µM | 47.9 µM | – |
| COc1ccc(-c2oc3cc(O)cc(O)c3c(=O)c2OC)cc1 | – | – | inactive |
| COc1ccccc1N=C(N)N/N=C/c1c[nH]c2ccccc12 | – | – | inactive |
| CC(C)(C)c1ccc(O)c(C(O)c2cccnc2)c1 (stereo not given) | > 200 µM | 61.7 µM | – |
| CC1c2c(cc(=O)n(Cc3ccccc3)c2O)C(=O)N1Cc1ccccc1 (stereo not given) | > 72.4 µM | 61.7 µM | – |
| Nc1n[n+](CC(=O)c2ccccc2)c2sc(-c3ccccc3)nn12 | > 200 µM | 45.7 µM | – |
| COc1ccc(N2C(=O)[C@H]3[C@H]4CC(C(C)(C)C)CC[C@H]4c4c(n(C)c5ccccc45)[C@H]3C2=O)cc1 (stereo not given in full) | > 15.1 µM | > 15.1 µM | – |
| C=CCOCn1ccc(=O)[nH]c1=O | > 200 µM | > 200 µM | – |
| CCOC(=O)c1cc(C(=O)OCC)c2ccccn2c1=O | > 100 µM | 43.7 µM | – |
| COCN1COCN(C)C1=O | > 1550 µM | > 1550 µM | – |
| CNc1ccc(Cl)cc1S(=O)(=O)c1ccccc1[N+](=O)[O-] | 0.562 µM | 741 µM | – |
| Cc1ccc(S(=O)(=O)OC2C(O)C(O)OC2C(c2cc(O)c3c(c2O)C(=O)c2ccccc2C3=O)c2cc(O)c3c(c2O)C(=O)c2ccccc2C3=O)cc1 (stereo not given) | > 200 µM | 14.5 µM | – |
| CCOP(=O)(OCC)c1cc(-c2ccccc2)ccc1N | > 200 µM | > 200 µM | – |
| C[n+]1ccc(-c2nc(-c3cc[n+](C)cc3)nc(-c3cc[n+](C)cc3)n2)cc1 | > 200 µM | 77.6 µM | – |
| CCOc1c2c(cc3c1C(=O)c1c(OC)cccc1C3=O)C=C(OC)CC2 | > 25.1 µM | 13.5 µM | – |
